According to the NIST ThermoML archive (doi:10.1021/je500682v):
± gives the expanded uncertainty stated by the source.

Tests used:
[1] = Molar enthalpy of transition or fusion; details: Crystal; DSC
[2] = Crystal; DTA

Molar enthalpy of transition or fusion [1] [kcal/mol] | Normal melting temperature [2] [°C] | SMILES
5.07 ± 0.287 | 99.10 ± 0.99 | O=C(O)CCCC(=O)O [1,5-pentanedioic acid]
8.4 ± 0.454 | 152.00 ± 0.99 | O=C(O)CCCCC(=O)O [1,6-hexanedioic acid]
7.82 ± 0.43 | 185.50 ± 0.99 | O=C(O)CCC(=O)O [butanedioic acid]
